melting point: 220 to 222 °C
SMILES: Clc1ccc(Nc2nnc(Cc3ccncc3)c3ncccc23)cc1

Reference: patent US20100226931A1, “Compounds for immunopotentiation” (priority 2004, published 2010)
